The source of these data is ChEMBL document CHEMBL1140513, “Heteroatom-linked indanylpyrazines are corticotropin releasing factor type-1 receptor antagonists” (Bioorg Med Chem Lett, 2007).

The assay concerns the target T1, Corticotropin-releasing factor receptor 1 (Homo sapiens, UniProt P34998).
T1 sequence (P34998 whole entry): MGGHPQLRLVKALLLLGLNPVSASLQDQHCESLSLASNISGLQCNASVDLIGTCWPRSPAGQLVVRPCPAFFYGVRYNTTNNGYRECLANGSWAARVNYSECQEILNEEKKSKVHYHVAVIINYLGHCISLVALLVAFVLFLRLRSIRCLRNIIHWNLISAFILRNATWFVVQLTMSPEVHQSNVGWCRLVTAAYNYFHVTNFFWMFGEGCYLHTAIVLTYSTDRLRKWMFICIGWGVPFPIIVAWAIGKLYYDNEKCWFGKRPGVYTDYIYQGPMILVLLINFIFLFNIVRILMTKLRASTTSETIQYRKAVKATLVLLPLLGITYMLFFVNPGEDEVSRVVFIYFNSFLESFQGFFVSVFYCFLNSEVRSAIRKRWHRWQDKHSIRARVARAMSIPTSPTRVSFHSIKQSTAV
Description: Displacement of [125I]Tyr-o-CRF from CRF1 receptor in IMR32 cells. The class given is cell-based, IMR-32. A general note: In a radioligand displacement assay an active substance lowers the binding of a labelled ligand.
Usually Ki stands for the dissociation constant of the complex between target and ligand, obtained from inhibition or displacement. A low value points to a stronger hold on the target. Take `CCOCC(Nc1nc(CC)c(Oc2cc(C)ccn2)nc1CC)c1ccccc1` (centres undefined): the affinity corresponds to a Ki of 384 nM.

`CCO[C@@H]1Cc2ccccc2[C@H]1Nc1nc(CC)c(Oc2cc(C)ccn2)nc1CC` showed an inhibition constant (Ki) greater than 10000 nM.

`CCc1nc(NC(CC)CC)c(CC)nc1Nc1ccc([N+](=O)[O-])cn1` gave a Ki greater than 10000 nM.

With `CCO[C@H]1Cc2ccccc2[C@@H]1Nc1nc(CC)c(Oc2cc(C)ccn2)nc1CC`, the inhibitory constant (Ki) was found to be 5470 nM.

In turn, `CCc1nc(Oc2cc(C)ccn2)c(CC)nc1N[C@H]1c2ccccc2C[C@H]1O` gave an inhibitory constant (Ki) greater than 10000 nM.

For the compound `CCO[C@@H]1Cc2ccccc2[C@@H]1Nc1nc(CC)c(Oc2cc(C)ccn2)nc1CC`, the inhibition constant Ki is greater than 10000 nM.

In turn, `CCO[C@H]1Cc2ccccc2[C@H]1Nc1nc(CC)c(Oc2cccc(C)n2)nc1CC` gave an inhibition constant Ki of 472 nM.

As for `CCc1nc(NC(CC)CC)c(CC)nc1Nc1ncc(Cl)cc1Cl`, the affinity, expressed as Ki, was 115 nM.

For the compound `CCc1nc(NC(CC)CC)c(CC)nc1Nc1cccc(C)n1`, the affinity, expressed as Ki, was 3380 nM.

On to `CCCN(CCC)c1nc(CC)c(Oc2cc(C)ccn2)nc1CC`, for which the Ki was found to be 711 nM.

Compound `CCc1nc(Oc2cc(C)ccn2)c(CC)nc1NC(CC)CC` registered a Ki greater than 10000 nM.

Turning to `CCc1nc(N[C@@H]2c3ccccc3C[C@@H]2OCCF)c(CC)nc1Nc1ncc(Cl)cc1Cl`, affinity was put at a Ki of 1730 nM.

`CCc1nc(NC(CC)CC)c(CC)nc1Nc1ccc(Cl)cc1Cl` registered an inhibition constant (Ki) greater than 10000 nM.

On to `CCc1nc(NC(CC)c2ccccc2)c(CC)nc1Nc1ncc(Cl)cc1Cl` (centres undefined), for which the inhibitory constant (Ki) is greater than 10000 nM.

Compound `CCCO[C@H]1Cc2ccccc2[C@H]1Nc1nc(CC)c(Oc2cc(C)ccn2)nc1CC` had an inhibitory constant (Ki) of 30 nM.

Turning to `CCO[C@H]1Cc2ccccc2[C@H]1Nc1nc(CC)c(Oc2cc(C)ccn2)nc1CC`, the affinity corresponds to a Ki of 35 nM.

As for `CCc1nc(Oc2cc(C)ccn2)c(CC)nc1N[C@@H]1c2ccccc2C[C@@H]1OC(C)=O`, the inhibition constant (Ki) came out at 2020 nM.

As for `CCO[C@H]1Cc2ccccc2[C@H]1Nc1nc(CC)c(Oc2ncccc2C)nc1CC`, affinity was put at a Ki of 509 nM.

Compound `CCc1nc(NC(CC)CC)c(CC)nc1Nc1ccccn1` gave an inhibition constant (Ki) greater than 10000 nM.
